Measurements as given in ChEMBL document CHEMBL5346921, “Discovery of novel benzamide derivatives bearing benzamidophenyl and phenylacetamidophenyl scaffolds as potential antitumor agents via targeting PARP-1” (Eur J Med Chem, 2023).

Test system: HCT-116
Test: Induction of apoptosis in human HCT-116 cells assessed as necrotic cells at 7.5 uM incubated for 48 hrs by AnnexinV-FITC/PI staining based flow cytometry (reference value: 0%)
Assay type: functional

NC(=O)c1ccccc1OCc1cccc(NC(=O)c2ccc(Br)cc2)c1
Activity: 0.51%
